# Publication PMC9063842, “A GH115 α-glucuronidase structure reveals dimerization-mediated substrate binding and a proton wire potentially important for catalysis” (Acta Crystallographica. Section D, Structural Biology, 2022)
# B1: wtsAgu115A (enzyme)
# chain: AGDNKGITYEELNPERFTLLEKGTPTNILIDENEDQGVMIAATNLSEDFGRVSGTNAPLIFLPDNERLIIVGTLESRYIKELTENRKIKGDELKGKNEKYLMTVVDNPLPGVKEALIIAGSDKRGAIYGIYELSEQIGVSPWYDWADVPVKPQQNLSIERGSYTADEPAVTYRGIFLNDEAPALTSWVENTYGTKYGDHRFYSRVFELILRLRGNFLWPAMWDWSFYGDDPLNSKTADTMGIIMGTSHHEPMARNHQEWARNRDKYGVWDYTSNQEVIDQFFREGIERVKDTDDLITIGMRGDGDTPMPMGVKEGEDHLPSDEDNMRLLERIIKNQREIIGDVTGESPEKTPQVWAIYKEVQRYFDLGLRPPEDVIILLSDDNWGNVRRLPTEEERDHPGGWGMYYHFDYVGAPRSSKWLNISPIQNIWEQMQLTYDYGVDELWVANVGDLKPMEYPITLFLDMAWDPTRFNAENLLDHTRSFAAQQFGEDQADEAARIINLYSKYNGRVTPEMLDRNTYNLESGEWKKVSDEYIKLEAEALRQYLTLEPEQRDAYKQLILYPVQAMANLYEMYYSQAMNHKLYRENNPMANYWADRVEETFNRDAELSHDYNKVMANGKWDGMMTQKKIGYRSWNDNFPADTLPQIFRIENPEEATGGYVFTARDGVVVIEAEHYFEAKDAEEAKWTVIPYMGRTLSSIALMPYTKEVEGASLSYRMQIPDEVSEVKVHVVVKSTLPFHDPKGHEYRVGFEGGSKEIVNFNWNLNEEPENIYSVFYPTVASRVVKKDVTLDLHDTDDGFYTLTLEPLDPGIVFQKIVVDFGGYEESRLFMEESPNKRIEIE
# Columns and labels:
# wtsAgu115A = target: T1, wtsAgu115A (uncultured bacterium, UniProt A0ACD6BAS3); assay: X-ray crystal structure, crystal soaking; type: binding; conditions: 2.65 A; 0.2 M CaCl2, HEPES pH 7.5, 28% PEG 400; five of six xylose units visible; active site at dimer interface; Ca2+ near site; wild type inferred (Asp303 side chain H-bonds the ligand)
# T1 construct: mature protein without 19-residue signal peptide, pET-28a (NcoI/XhoI), His-tag purified, E. coli BL21(DE3) pLysS; homodimer
# [1] = target: the molecule itself; assay: SEC; analytical gel filtration, HiLoad 16/60 Superdex G200, 10 mM sodium acetate, 150 mM NaCl pH 6, 0.5 ml/min; standards aldolase (158 kDa), conalbumin (75 kDa), ovalbumin (44 kDa)
molecule,measurement,setting,value
OC1OC[C@@H](O[C@@H]2OC[C@@H](O[C@@H]3OC[C@@H](O[C@@H]4OC[C@@H](O[C@@H]5OC[C@@H](O[C@@H]6OC[C@@H](O)[C@H](O)[C@H]6O)[C@H](O)[C@H]5O)[C@H](O)[C@H]4O)[C@H](O)[C@H]3O)[C@H](O)[C@H]2O)[C@H](O)[C@H]1O (some centres unmarked) [xylohexaose],"X-ray crystal structure, crystal soaking",wtsAgu115A,"five β-1,4-linked D-xylopyranose moieties was observed in the crystal structure of wtsAgu115A soaked with xylohexaose"
B1,stoichiometry N,[1],2
